Patent publication US11377442B2, “Small molecule agonists and antagonists of NR2F6 activity” (ZANDER THERAPEUTICS, INC., priority 2016, dated 2022)
Read-outs that look alike come from different tables or passages of the source.

Key:
Assay type in all cases: cell-based
NR2F6 = molecular target: T1, NR2F6 (Homo sapiens, UniProt P10588); assay: NR2F6 agonist screening, Firefly signal cmpd/DMSO
T1 construct: expressed in transfected cells; also transient transfection
T1 sequence (P10588 1-404): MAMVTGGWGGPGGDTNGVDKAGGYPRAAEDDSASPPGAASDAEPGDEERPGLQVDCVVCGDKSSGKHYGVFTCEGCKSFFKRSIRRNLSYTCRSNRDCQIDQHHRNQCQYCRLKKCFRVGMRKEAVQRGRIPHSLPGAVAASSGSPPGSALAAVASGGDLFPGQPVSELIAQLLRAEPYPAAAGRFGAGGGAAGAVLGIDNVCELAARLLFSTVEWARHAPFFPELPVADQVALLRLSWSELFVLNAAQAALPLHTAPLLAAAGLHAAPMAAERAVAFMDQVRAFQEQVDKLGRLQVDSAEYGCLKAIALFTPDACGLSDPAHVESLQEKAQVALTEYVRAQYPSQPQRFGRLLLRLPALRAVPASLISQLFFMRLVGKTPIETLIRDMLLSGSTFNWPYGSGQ

Renilla = Renilla signal in NR2F6 agonist screening, cmpd/DMSO; conditions: Renilla, F4
HEK293 pGL4 = assay: Firefly_pGL signal, cmpd/DMSO (pGL4 control cells); conditions: Homo sapiens
NR2F6 LBD = molecular target: T2, NR2F6 LBD (Homo sapiens, UniProt P10588); assay: NR2F6 LBD transient transfection; conditions: LBD
T2 construct: expressed in transfected cells
T2 sequence (P10588 165-393 limits assumed): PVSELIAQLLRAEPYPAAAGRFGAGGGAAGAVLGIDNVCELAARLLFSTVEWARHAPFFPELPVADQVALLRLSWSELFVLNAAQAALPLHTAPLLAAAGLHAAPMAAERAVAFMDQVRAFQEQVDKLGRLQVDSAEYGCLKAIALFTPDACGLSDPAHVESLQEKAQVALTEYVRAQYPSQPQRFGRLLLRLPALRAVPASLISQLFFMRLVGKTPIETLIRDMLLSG
Summary of the method: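 LBD-transfected cells treated at 40, 10, 2 and 0.5 μM (4 replicates); cytotoxicity measured in parallel, normalized to DMSO (0%) and zero signal (100%). Higher concentrations excluded where signal loss reflected toxicity.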

[1] = read-out: Renilla, F4, cmpd/DMSO (mean)
[2] = 1% FBS, read-out: Renilla, F4, 1% FBS, cmpd/DMSO (mean)
[3] = 10% FBS, read-out: Renilla, F4, 10% FBS, cmpd/DMSO (mean)
[4] = HEK293, 0.5 uM, pGL4, read-out: Firefly pGL4, cmpd/DMSO (mean)
[5] = HEK293, 2 uM, pGL4, read-out: Firefly pGL4, cmpd/DMSO (mean)
[6] = HEK293, 10 uM, pGL4, read-out: Firefly pGL4, cmpd/DMSO (mean)
[7] = HEK293, 40 uM, pGL4, read-out: Firefly pGL4, cmpd/DMSO (mean)
[8] = HEK293, pGL4, 1% FBS, 0.5 uM, read-out: Firefly, pGL4, 1% FBS, cmpd/DMSO (mean)
[9] = HEK293, pGL4, 1% FBS, 2 uM, read-out: Firefly, pGL4, 1% FBS, cmpd/DMSO (mean)
[10] = HEK293, pGL4, 1% FBS, 10 uM, read-out: Firefly, pGL4, 1% FBS, cmpd/DMSO (mean)
[11] = HEK293, pGL4, 1% FBS, 40 uM, read-out: Firefly, pGL4, 1% FBS, cmpd/DMSO (mean)
[12] = HEK293, pGL4, 10% FBS, 0.5 uM, read-out: Firefly, pGL4, 10% FBS, cmpd/DMSO (mean)
[13] = HEK293, pGL4, 10% FBS, 2 uM, read-out: Firefly, pGL4, 10% FBS, cmpd/DMSO (mean)
[14] = HEK293, pGL4, 10% FBS, 10 uM, read-out: Firefly, pGL4, 10% FBS, cmpd/DMSO (mean)
[15] = HEK293, pGL4, 10% FBS, 40 uM, read-out: Firefly, pGL4, 10% FBS, cmpd/DMSO (mean)

Structure (SMILES): CCCCN[C@H]1CS(=O)(=O)C[C@@H]1S(=O)(=O)c1ccc(Cl)cc1 [Compound D119]
- Firefly F4, cmpd/DMSO (mean) (NR2F6; 0.5 uM): 0.9
- Firefly F4, cmpd/DMSO (mean) (NR2F6; 2 uM): 2.0
- Firefly F4, cmpd/DMSO (mean) (NR2F6; 10 uM): 5.3
- Firefly F4, cmpd/DMSO (mean) (NR2F6; 40 uM): 0.6
- F4, Firefly/Renilla for S/B(F4) > 3 (NR2F6; 1% FBS, 10 uM): 2.5
- Firefly, F4/pGL4 for S/B(F4) > 3 (NR2F6; 1% FBS, 10 uM): 1.9
- F4, Firefly/Renilla for S/B(F4) > 3 (NR2F6; 10% FBS, 10 uM): 2.7
- Firefly, F4/pGL4 for S/B(F4) > 3 (NR2F6; 10% FBS, 10 uM): 3.3
- Firefly, F4, 1% FBS, cmpd/DMSO (mean) (NR2F6; 1% FBS, 0.5 uM): 1.5
- Firefly, F4, 1% FBS, cmpd/DMSO (mean) (NR2F6; 1% FBS, 2 uM): 1.8
- Firefly, F4, 1% FBS, cmpd/DMSO (mean) (NR2F6; 1% FBS, 10 uM): 4.4
- Firefly, F4, 1% FBS, cmpd/DMSO (mean) (NR2F6; 1% FBS, 40 uM): 0.2
- Firefly, F4, 10% FBS, cmpd/DMSO (mean) (NR2F6; 10% FBS, 0.5 uM): 1.5
- Firefly, F4, 10% FBS, cmpd/DMSO (mean) (NR2F6; 10% FBS, 2 uM): 1.1
- Firefly, F4, 10% FBS, cmpd/DMSO (mean) (NR2F6; 10% FBS, 10 uM): 7.3
- Firefly, F4, 10% FBS, cmpd/DMSO (mean) (NR2F6; 10% FBS, 40 uM): 1.6
- fold induction at 0.5 µM (Renilla; [1]): 1.2
- fold induction at 2 µM (Renilla; [1]): 1.2
- fold induction at 10 µM (Renilla; [1]): 1.6
- fold induction at 40 µM (Renilla; [1]): 0.2
- fold induction at 0.5 µM (Renilla; [2]): 1.1
- fold induction at 2 µM (Renilla; [2]): 1.1
- fold induction at 10 µM (Renilla; [2]): 1.8
- fold induction at 40 µM (Renilla; [2]): 0.4
- fold induction at 0.5 µM (Renilla; [3]): 1.4
- fold induction at 2 µM (Renilla; [3]): 1.5
- fold induction at 10 µM (Renilla; [3]): 2.7
- fold induction at 40 µM (Renilla; [3]): 1.3
- fold induction at 0.5 µM (HEK293 pGL4; [4]): 1.1
- fold induction at 2 µM (HEK293 pGL4; [5]): 1.5
- fold induction at 10 µM (HEK293 pGL4; [6]): 3.9
- fold induction at 40 µM (HEK293 pGL4; [7]): 0.6
- fold induction at 0.5 µM (HEK293 pGL4; [8]): 1.2
- fold induction at 2 µM (HEK293 pGL4; [9]): 1.4
- fold induction at 10 µM (HEK293 pGL4; [10]): 2.4
- fold induction at 40 µM (HEK293 pGL4; [11]): 0.7
- fold induction at 0.5 µM (HEK293 pGL4; [12]): 1.1
- fold induction at 2 µM (HEK293 pGL4; [13]): 1.2
- fold induction at 10 µM (HEK293 pGL4; [14]): 2.2
- fold induction at 40 µM (HEK293 pGL4; [15]): 0.5
- Firefly LBD, cmpd/DMSO (mean) (NR2F6 LBD; 0.5 uM): 1.0
- Firefly LBD, cmpd/DMSO (mean) (NR2F6 LBD; 2 uM): 1.5
- Firefly LBD, cmpd/DMSO (mean) (NR2F6 LBD; 10 uM): 3.4
- Firefly LBD, cmpd/DMSO (mean) (NR2F6 LBD; 40 uM): 0.5

Structure (SMILES): CC(C)CN[C@H]1CS(=O)(=O)C[C@@H]1S(=O)(=O)c1ccc(Cl)cc1 [Compound D120]
- Firefly F4, cmpd/DMSO (mean) (NR2F6; 0.5 uM): 1.3
- Firefly F4, cmpd/DMSO (mean) (NR2F6; 2 uM): 1.5
- Firefly F4, cmpd/DMSO (mean) (NR2F6; 10 uM): 5.1
- Firefly F4, cmpd/DMSO (mean) (NR2F6; 40 uM): 2.2
- F4, Firefly/Renilla for S/B(F4) > 3 (NR2F6; 1% FBS, 10 uM): 2.3
- Firefly, F4/pGL4 for S/B(F4) > 3 (NR2F6; 1% FBS, 10 uM): 1.7
- F4, Firefly/Renilla for S/B(F4) > 3 (NR2F6; 10% FBS, 10 uM): 2.1
- Firefly, F4/pGL4 for S/B(F4) > 3 (NR2F6; 10% FBS, 10 uM): 1.8
- Firefly, F4, 1% FBS, cmpd/DMSO (mean) (NR2F6; 1% FBS, 0.5 uM): 0.8
- Firefly, F4, 1% FBS, cmpd/DMSO (mean) (NR2F6; 1% FBS, 2 uM): 1.2
- Firefly, F4, 1% FBS, cmpd/DMSO (mean) (NR2F6; 1% FBS, 10 uM): 4.7
- Firefly, F4, 1% FBS, cmpd/DMSO (mean) (NR2F6; 1% FBS, 40 uM): 0.2
- Firefly, F4, 10% FBS, cmpd/DMSO (mean) (NR2F6; 10% FBS, 0.5 uM): 1.0
- Firefly, F4, 10% FBS, cmpd/DMSO (mean) (NR2F6; 10% FBS, 2 uM): 1.2
- Firefly, F4, 10% FBS, cmpd/DMSO (mean) (NR2F6; 10% FBS, 10 uM): 3.6
- Firefly, F4, 10% FBS, cmpd/DMSO (mean) (NR2F6; 10% FBS, 40 uM): 1.7
- fold induction at 0.5 µM (Renilla; [1]): 1
- fold induction at 2 µM (Renilla; [1]): 1.2
- fold induction at 10 µM (Renilla; [1]): 1.7
- fold induction at 40 µM (Renilla; [1]): 1.6
- fold induction at 0.5 µM (Renilla; [2]): 1
- fold induction at 2 µM (Renilla; [2]): 1.3
- fold induction at 10 µM (Renilla; [2]): 2.1
- fold induction at 40 µM (Renilla; [2]): 0.6
- fold induction at 0.5 µM (Renilla; [3]): 1
- fold induction at 2 µM (Renilla; [3]): 1.1
- fold induction at 10 µM (Renilla; [3]): 1.7
- fold induction at 40 µM (Renilla; [3]): 1.5
- fold induction at 0.5 µM (HEK293 pGL4; [4]): 1.4
- fold induction at 2 µM (HEK293 pGL4; [5]): 1.5
- fold induction at 10 µM (HEK293 pGL4; [6]): 3.7
- fold induction at 40 µM (HEK293 pGL4; [7]): 0.8
- fold induction at 0.5 µM (HEK293 pGL4; [8]): 1.5
- fold induction at 2 µM (HEK293 pGL4; [9]): 1.5
- fold induction at 10 µM (HEK293 pGL4; [10]): 2.8
- fold induction at 40 µM (HEK293 pGL4; [11]): 0.9
- fold induction at 0.5 µM (HEK293 pGL4; [12]): 1.1
- fold induction at 2 µM (HEK293 pGL4; [13]): 1.7
- fold induction at 10 µM (HEK293 pGL4; [14]): 2
- fold induction at 40 µM (HEK293 pGL4; [15]): 0.7
- Firefly LBD, cmpd/DMSO (mean) (NR2F6 LBD; 0.5 uM): 1.1
- Firefly LBD, cmpd/DMSO (mean) (NR2F6 LBD; 2 uM): 1.7
- Firefly LBD, cmpd/DMSO (mean) (NR2F6 LBD; 10 uM): 4.1
- Firefly LBD, cmpd/DMSO (mean) (NR2F6 LBD; 40 uM): 0.8
